Here are results for four molecules from US20230035586A1, “Salts of R-ketorolac” (Revere Pharmaceuticals, Inc., priority 2019, published 2023).

Some results are limits rather than exact numbers.

For data set [1] the following is noted: in vivo; cited from earlier work.
Data set [2] can be described thus: Dynamic Vapor Sorption (DVS) moisture sorption/desorption. In kind it is physicochemical. As to conditions: for weight gain from 5-75% RH / weight gain from 5-75% RH, moles of H2O / weight gain above 75% RH / weight gain above 75% RH, moles of H2O: DVS sorption; for weight gain above 75% RH / weight gain above 75% RH, moles of H2O: above 75% RH (up to 95% RH); for form change after DVS, based on XRPD: XRPD of post-DVS solids. As for the experimental part: DVS analysis (FIG. 5) was conducted by first equilibrating at ambient RH, and then dropping to 5% RH. It was then increased to 95% RH and cycled back to 5% RH. The sample was held at 5% RH until XRPD analysis. Upon equilibration from ambient RH (-48%) to 5% RH, the sample loses 0.4 wt %, equivalent to ˜0.1 moles of H2O. From 5-75% RH, the material undergoes a 1.2 wt % gain (˜0.25 moles of H2O). Above 75% RH, the material gains ˜12 wt % (˜3 moles of H2O).
The crystalline salt of R-ketorolac and meglumine was analyzed by DVS (FIG. 10). […] Upon equilibration from ambient RH (˜50%) to 5% RH, the sample loses 0.1 wt %, equivalent to <0.1 mole of H2O. From 5-75% RH, the material undergoes a 0.9 wt % gain (˜0.25 moles of H2O). Above 75% RH, the material gains ˜37 wt % (>12 moles of H2O). Upon desorption to 5% RH, which occurs with hysteresis, the sample retains ˜9.6 wt % (˜2.7 moles of H2O).
Moisture sorption/desorption data were collected on a VTI SGA-100 Vapor Sorption Analyzer. NaCl and PVP were used as calibration standards. Samples were not dried prior to analysis. Sorption and desorption data were collected over a range from 5% to 95% RH at 10% RH increments under a nitrogen purge. The equilibrium criterion used for analysis was less than 0.0100% weight change in 5 minutes with a maximum equilibration time of 3 hours. Data were not corrected for the initial moisture content of the samples.

On to `O=C(c1ccccc1)c1ccc2n1CC[C@@H]2C(=O)O` [S-ketorolac], for which, in data set [1], the “tolerability in rat studies” value was “severe dose limiting toxicities”.

Turning to `CNCC(O)C(O)C(O)C(O)CO.O=C(c1ccccc1)c1ccc2n1CCC2C(=O)O` (stereo not drawn) [R-ketorolac meglumine crystalline salt, R-ketorolac meglumine salt], in data set [2] (DVS desorption to 5% RH), the “weight retained upon desorption to 5% RH” value was around 9.6 wt % and the “weight retained upon desorption to 5% RH, moles of H2O” value is reported as ~2.7 moles of H2O. Moreover, in data set [2], the “weight gain from 5-75% RH” value was 0.9 wt %; the “weight gain from 5-75% RH, moles of H2O” value is recorded as ~0.25 moles of H2O; the “weight gain above 75% RH” value was around 37 wt %; the “weight gain above 75% RH, moles of H2O” value is > 12 moles of H2O. For the same molecule, in data set [2], the “form change after DVS, based on XRPD” value is “form change is not observed”. Besides, the “hygroscopicity above 75% RH” value in data set [2] (DVS, above 75% RH) is recorded as “highly hygroscopic”. Further, in data set [2] (DVS), the “weight loss upon equilibration from ambient RH to 5% RH” value amounted to 0.1 wt % and the “weight loss upon equilibration from ambient RH to 5% RH, equivalent moles of H2O” value is < 0.1 moles of H2O. For the same molecule, in data set [2] (DVS, below 75% RH), the “hygroscopicity below 75% RH” value is reported as “limited hygroscopicity”.

In the case of `NC(CO)(CO)CO.O=C(c1ccccc1)c1ccc2n1CC[C@H]2C(=O)O` [R-ketorolac tromethamine salt], the “moisture after desorption to 5% RH (in words)” value in data set [2] (DVS desorption to 5% RH, small hysteresis) was “all the gained moisture is lost”. In data set [2], the “weight gain from 5-75% RH” value is given as 1.2 wt %; the “weight gain from 5-75% RH, moles of H2O” value is given as ~0.25 moles of H2O; the “weight gain above 75% RH” value is around 12 wt %; the “weight gain above 75% RH, moles of H2O” value is ~3 moles of H2O. For the same molecule, the “form change after DVS, based on XRPD” value in data set [2] was “form change is not observed”. Besides, in data set [2] (DVS), the “weight loss upon equilibration from ambient RH to 5% RH” value is recorded as 0.4 wt % and the “weight loss upon equilibration from ambient RH to 5% RH, equivalent moles of H2O” value was ~0.1 moles of H2O.

Consider `O=C(c1ccccc1)c1ccc2n1CC[C@H]2C(=O)O` [R-ketorolac], for which the “tolerability in rat studies” value in data set [1] was “much better tolerated than S-ketorolac”.
